This is an account of results in US4110536A, “Derivatives of 5-(indol-3-yl)hydantoin” (Miles Laboratories, Inc., priority 1977, dated 1978).

The subject of one data set is chloroform-induced arrhythmias.
Assay: not given
To be noted: mouse, in vivo, ip, 10 min.
The compound `COc1ccc2[nH]cc(CC3NC(=O)N(CCCN4CCC(c5ccccc5)CC4)C3=O)c2c1` (stereo not shown) [Example 21, 5-(5-Methoxyindol-3-ylmethyl)-3-[3-(4-phenylpiperid-1-yl)propyl]hydantoin] returned a 50% effective dose (ED50) of 9 mg/kg.
On the same count and under the same terms, in the case of `O=C1NC(Cc2c[nH]c3ccccc23)C(=O)N1CCCN1CCC(c2ccccc2)CC1` (stereo not shown) [Example 9, 5-(Indol-3-ylmethyl)-3-[3-(4-phenyl-1-piperidyl)propyl]hydantoin] it was 7.5 mg/kg; in that of `O=C1NC(Cc2c[nH]c3ccccc23)C(=O)N1CCCN1CCCCC1` (stereo not shown) [Example 20, 5-(Indol-3-ylmethyl)-3-(3-piperidylpropyl)hydantoin], 23.8 mg/kg; in that of `CCN(CC)CCCN1C(=O)NC(Cc2c[nH]c3ccc(OC)cc23)C1=O` (stereo not shown) [Example 18, 3-(3-Diethylaminopropyl)-5-(5-methoxyindol-3-ylmethyl)hydantoin], 13 mg/kg.
`O=C1NC(Cc2c[nH]c3ccccc23)C(=O)N1CCCN1CCC(O)(c2ccccc2)CC1` (stereo not shown) [Example 13, 3-[3-(4-Hydroxy-4-phenylpiperid-1-yl)propyl]-5-[(indol-3-yl)methyl]hydantoi] displayed an ED50 of 23 mg/kg.
For the compound `O=C1NC(c2ccccc2)(c2c[nH]c3ccccc23)C(=O)N1CCCN1CCC(c2ccccc2)CC1` (stereo not shown) [Example 12, 5-(Indol-3-yl)-5-phenyl-3-[3-(4-phenyl-1-piperidyl)propyl]hydantoin], the 50% effective dose (ED50) is 80 mg/kg.
For the compound `CCN(CC)CCCN1C(=O)NC(c2ccccc2)(c2c[nH]c3ccccc23)C1=O` (stereo not shown) [Example 14, 3-(3-Diethylaminopropyl)-5-(indol-3-yl)-5-phenylhydantoin], the median effective dose (ED50) worked out at 27 mg/kg.
Same read-out and setting: as for `CCN(CC)CCCN1C(=O)NC(c2c[nH]c3ccccc23)C1=O` (stereo not shown) [Example 15, 3-(3-Diethylaminopropyl)-5-(indol-3-yl)hydantoin], the figure is 44 mg/kg.
Still for that read-out and setting: as for “5-[(indol-3-yl)methyl]hydantoin [V (R=II)]”, the figure is 72 mg/kg; as for `O=C1NC(Cc2c[nH]c3ccc(Cl)cc23)C(=O)N1CCCN1CCC(c2ccccc2)CC1` (stereo not shown) [Example 11, 5-(5-Chloroindol-3-ylmethyl)-3-[3-(4-phenyl-1-piperidyl)propyl]hydantoin], 37 mg/kg; as for `O=C1NC(=O)C(c2ccccc2)(c2ccccc2)N1` [III, 5,5-diphenyl-2,4-imidazolidinedione], 123 mg/kg.
As to `C[N+]1(CCCN2C(=O)NC(Cc3c[nH]c4ccccc34)C2=O)CCC(c2ccccc2)CC1` (stereo not shown) [Example 10, 5-(Indol-3-ylmethyl)-3-[3-(4-phenyl-1-piperidyl)propyl]hydantoin methiodide], the 50% effective dose (ED50) came out at 19.6 mg/kg.
Still for that read-out and setting: as for `CCN(CC)CCCN1C(=O)NC(Cc2c[nH]c3ccc(Cl)cc23)C1=O` (stereo not shown) [Example 17, 5-(5-Chloroindol-3-ylmethyl)-3-(diethylaminopropyl)hydantoin], the figure is 44 mg/kg.

Tested on in another data set: not listed separately
The data set can be described thus: in vivo. To be noted: mouse, ip.
Method: LD50 data were obtained by standard procedures known to the art.
In order to obtain an indication of the specificity and/or safety margin of the antiarrhythmic effect, the acute toxicity of the compounds was investigated. This was carried out by administering log-spaced intraperitoneal doses of the test compounds to groups of five mice.
Consider `O=C1NC(c2c[nH]c3ccccc23)C(=O)N1CCCN1CCCCC1` (stereo not shown) [Example 6, 5-(Indol-3-yl)-3-[3-(piperid-1-yl)propyl]hydantoin], for which the LD50 at 48 h was found to be 66 mg/kg and the selectivity ratio came to 3.1.
As for `COc1ccc2[nH]cc(CC3NC(=O)N(CCCN4CCC(c5ccccc5)CC4)C3=O)c2c1` (stereo not shown) [Example 21, 5-(5-Methoxyindol-3-ylmethyl)-3-[3-(4-phenylpiperid-1-yl)propyl]hydantoin], the median lethal dose (LD50) at 48 h amounted to 24 mg/kg and the selectivity ratio was determined as 2.7.
For `O=C1NC(Cc2c[nH]c3ccccc23)C(=O)N1CCCN1CCC(c2ccccc2)CC1` (stereo not shown) [Example 9, 5-(Indol-3-ylmethyl)-3-[3-(4-phenyl-1-piperidyl)propyl]hydantoin] the same measures were 19 mg/kg and 2.5.
As to `O=C1NC(Cc2c[nH]c3ccccc23)C(=O)N1CCCN1CCCCC1` (stereo not shown) [Example 20, 5-(Indol-3-ylmethyl)-3-(3-piperidylpropyl)hydantoin], the median lethal dose (LD50) at 48 h was 190 mg/kg and the selectivity ratio is 8.
Take `CCN(CC)CCCN1C(=O)NC(Cc2c[nH]c3ccc(OC)cc23)C1=O` (stereo not shown) [Example 18, 3-(3-Diethylaminopropyl)-5-(5-methoxyindol-3-ylmethyl)hydantoin]: the LD50 at 48 h stood at 61 mg/kg and the selectivity ratio is 4.7.
For `O=C1NC(Cc2c[nH]c3ccccc23)C(=O)N1CCCN1CCC(O)(c2ccccc2)CC1` (stereo not shown) [Example 13, 3-[3-(4-Hydroxy-4-phenylpiperid-1-yl)propyl]-5-[(indol-3-yl)methyl]hydantoi], in that order: 57 mg/kg and 2.5.
For `O=C1NC(c2ccccc2)(c2c[nH]c3ccccc23)C(=O)N1CCCN1CCC(c2ccccc2)CC1` (stereo not shown) [Example 12, 5-(Indol-3-yl)-5-phenyl-3-[3-(4-phenyl-1-piperidyl)propyl]hydantoin] the same measures were 63 mg/kg and 0.9.
For `CCN(CC)CCCN1C(=O)NC(c2ccccc2)(c2c[nH]c3ccccc23)C1=O` (stereo not shown) [Example 14, 3-(3-Diethylaminopropyl)-5-(indol-3-yl)-5-phenylhydantoin], in that order: 48 mg/kg and 1.8.
For `CCN(CC)CCCN1C(=O)NC(c2c[nH]c3ccccc23)C1=O` (stereo not shown) [Example 15, 3-(3-Diethylaminopropyl)-5-(indol-3-yl)hydantoin], the median lethal dose (LD50) at 48 h is 79 mg/kg and the selectivity ratio came to 1.8.
For `O=C1NC(Cc2c[nH]c3ccc(Cl)cc23)C(=O)N1CCCN1CCC(c2ccccc2)CC1` (stereo not shown) [Example 11, 5-(5-Chloroindol-3-ylmethyl)-3-[3-(4-phenyl-1-piperidyl)propyl]hydantoin], in that order: 69 mg/kg and 1.9.
For `C[N+]1(CCCN2C(=O)NC(Cc3c[nH]c4ccccc34)C2=O)CCC(c2ccccc2)CC1` (stereo not shown) [Example 10, 5-(Indol-3-ylmethyl)-3-[3-(4-phenyl-1-piperidyl)propyl]hydantoin methiodide], the LD50 at 48 h worked out at 69 mg/kg and the selectivity ratio worked out at 3.5.
For `CCN(CC)CCCN1C(=O)NC(Cc2c[nH]c3ccc(Cl)cc23)C1=O` (stereo not shown) [Example 17, 5-(5-Chloroindol-3-ylmethyl)-3-(diethylaminopropyl)hydantoin] the same measures were 74 mg/kg and 1.7.

Tested on in a further data set: not given
Assay: not given
To be noted: in vivo; cited from earlier work.
Turning to `O=C1NC(=O)C(c2ccccc2)(c2ccccc2)N1` [III, 5,5-diphenyl-2,4-imidazolidinedione], the “side effects / toxicity” value is “dizziness, nausea, emesis, nystigmus, and ataxia”.

The same data set, now with this note: prior-art background; cited from earlier work.
For the compound `C=C[C@H]1C[N@@]2CC[C@H]1C[C@@H]2[C@@H](O)c1ccnc2ccc(OC)cc12` [Quinidine], the “side effects / toxicity” value is listed as “relatively toxic”.

The same data set, now with this note: prior-art background; listed as DPH; cited from earlier work.
Turning to `O=C1NC(=O)C(c2ccccc2)(c2ccccc2)N1` [III, 5,5-diphenyl-2,4-imidazolidinedione], the “side effects / toxicity” value was “toxic and may produce atrio-ventricular blockage, bradycardia, or even cardiac arrest”.

Another data set deals with mice.
Assay: not given
As to conditions: LD50/ED50, mouse, i.p.
Turning to “5-[(indol-3-yl)methyl]hydantoin [V (R=II)]”, the “Therapeutic Index” value came to 4.3.

Staying with this data set, now noted: mouse, in vivo, ip, 2880 min.
The compound “5-[(indol-3-yl)methyl]hydantoin [V (R=II)]” gave a median lethal dose (LD50) of 307 mg/kg.

The next data set relates to ventricular arrhythmias induced by digitalis.
Assay: not given
To be noted: prior-art background; cited from earlier work.
`O=C1NC(=O)C(c2ccccc2)(c2ccccc2)N1` [III, 5,5-diphenyl-2,4-imidazolidinedione]: the “antiarrhythmic effects” value was “specifically antagonizes ventricular arrhythmias induced by digitalis, depresses ventricular automaticity, enhances atrio-ventricular nodal conduction, and reduces the effective refractory period”.
